This assay deals with T1, human MCH-1R (Homo sapiens, UniProt Q99705).
T1 construct: expressed in transfected cells; host or cells: CHO-K1 (American Type Culture Collection)
Kind of assay: MCH-1R binding inhibition ([125I]MCH binding to membranes of MCH-1R expression CHO-K1 cells). The following applies: 50 pM [125I]MCH, membranes of CHO-K1 cells expressing human MCH-1R, 25° C., one hour, pH 7.4; read-out: IC50 (50% inhibition concentration for specific [125I]MCH binding). As for the experimental part:
A cDNA sequence encoding human MCH-1R [FEBS Letters, Vol. 398, 253 (1996); Biochimica et Biophisica Acta, Vol. 1401, 216 (1998)] was cloned to a plasmid vector pEF/myc/cyto (manufactured by Invitrogen). The obtained expression vector was transfected to a host cell CHO-K1 (American Type Culture Collection) using Lipofectamine Plus reagent (manufactured by Life Technology) to provide MCH-1R expression cells.
Membrane samples prepared from the MCH-1R expression cells were incubated with a test compound and 50 pM [^125I]MCH (manufactured by NEN) in an assay buffer (50 mM Tris buffer containing 10 mM magnesium chloride, 2 mM ethylenediamine tetraacetate, 0.01% bacitracin, and 0.2% bovine serum albumin; pH 7.4) at 25° C. for one hour, followed by filtration through a glass filter GF/C (manufactured by Wattman). The glass filter was washed with 50 mM Tris buffer (pH 7.4) containing 10 mM magnesium chloride, 2 mM ethylenediamine tetraacetate, and 0.04% Tween-20, and then the radioactivity on the glass filter was determined. Non-specific binding was measured in the presence of 1 μM human MCH, and, with respect to each test compound, 50% inhibition concentration (IC50 value) for specific [^125I]MCH binding was determined.

From patent US20120316200A1, “PYRIDONE DERIVATIVES” (Merck Sharp & Dohme Corp., priority 2010, published 2012) come the findings set out here.

T1 sequence (Q99705 whole entry): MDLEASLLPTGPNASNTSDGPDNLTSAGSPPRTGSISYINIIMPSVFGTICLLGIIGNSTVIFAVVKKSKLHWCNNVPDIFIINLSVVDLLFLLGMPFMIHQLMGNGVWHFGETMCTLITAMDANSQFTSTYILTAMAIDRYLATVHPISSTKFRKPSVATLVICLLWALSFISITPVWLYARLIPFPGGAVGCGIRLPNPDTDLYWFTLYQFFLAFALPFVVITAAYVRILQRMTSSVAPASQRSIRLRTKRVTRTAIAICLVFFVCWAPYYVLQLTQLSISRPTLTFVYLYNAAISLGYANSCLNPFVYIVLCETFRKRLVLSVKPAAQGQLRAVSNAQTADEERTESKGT

Regarding `Cc1cc(-n2ccc(OCc3ccc(F)cc3)cc2=O)ccc1OCC(C)(C)O` [Example 2, 4-[(4-Fluorobenzyloxy)]-1-[4-(2-hydroxy-2-methylpropoxy)-3-methylphenyl]pyridin-2(1H)-one], the IC50 came out at 11 nM.

Take `Cc1cc(-n2ccc(OCc3ccc(F)cc3)cc2=O)ccc1OCC1(O)CC1` [Example 5, 4-[(4-Fluorobenzyl)oxy]-1-{4-[(1-hydroxycyclopropyl)methoxy]-3-methylphenyl}pyridin-2(1H)-one]: the IC50 is 11 nM.

Turning to `CC(C)(CO)COc1ccc(-n2ccc(OCc3ccc(F)cc3)cc2=O)cc1` [Example 6, 4-[(4-Fluorobenzyl)oxy]-1-[4-(3-hydroxy-2,2-dimethylpropoxy)phenyl]pyridin-2(1H)-one], the IC50 came out at 63 nM. The value for `CC(C)(O)c1ccc2cc(-n3ccc(OCc4ccc(F)cc4)cc3=O)ccc2n1` [Example 7, 4-(4-Fluorobenzyloxy)-1-[2-(2-hydroxypropan-2-yl)quinolin-6-yl]pyridin-2-(1H)-one] was 38 nM; that for `COc1cc(-n2ccc(OCc3ccc(F)cc3)cc2=O)ccc1OCCC(C)(C)O` [Example 8, 4-(4-Fluorobenzyloxy)-1-[4-(3-hydroxy-3-methylbutoxy)-3-methoxyphenyl]pyridin-2-(1H)-one] was 84 nM. On to `CC(C)(O)CCOc1ccc(-n2ccc(OCc3ccc(F)cc3)cc2=O)cc1` [Example 9, 4-[(4-Fluorobenzyl)oxy]-1-[4-(3-hydroxy-3-methylbutoxy)phenyl]pyridin-2 (1H)-one], for which the IC50 is 23 nM. Take `CC(C)(O)COc1ccc(-n2ccc(OCc3ccc(F)cc3)cc2=O)cc1Cl` [Example 10, 1-[3-chloro-4-(2-hydroxy-2-methylpropoxy)phenyl]-4-[(4-fluorobenzyl)oxy]pyridin-2(1H)-one]: the IC50 stood at 11 nM. The value for `CC(C)(O)COc1ccc(-n2ccc(OCc3ccc(F)cc3)cc2=O)cc1F` [Example 12, 4-[(4-fluorobenzyl)oxy]-1-[3-fluoro-4-(2-hydroxy-2-methylpropoxy)phenyl]pyridin-2(1H)-one] was 97 nM; that for `Cc1cc(-n2ccc(OCc3ccc(F)cc3)cc2=O)ccc1OCC(=O)OC(C)C` [Example 18, propan-2-yl (4-{4-[(4-fluorobenzyl)oxy]-2-oxopyridin-1(2H)-yl}-2-methylphenoxy)acetate] was 23 nM. With `COC(=O)COc1ccc(-n2ccc(OCc3ccc(F)cc3)cc2=O)cc1C` [Example 19, methyl (4-{4-[(4-fluorobenzyl)oxy]-2-oxopyridin-1(2H)-yl}-2-methylphenoxy)acetate], the IC50 was 31 nM. The value for `COC(=O)COc1ccc(-n2ccc(OCc3ccc(F)cc3)cc2=O)cc1OC` [Example 20, methyl (4-{4-[(4-fluorobenzyl)oxy]-2-oxopyridin-1(2H)-yl}-2-methoxyphenoxy)acetate] was 61 nM; that for `COc1cc(-n2ccc(OCc3ccc(Cl)cn3)cc2=O)ccc1OC[C@H](O)C1CC1` [Example 21, 4-[(5-chloropyridin-2-yl)methoxy]-1-{4-[(2R)-2-cyclopropyl-2-hydroxyethoxy]-3-methoxyphenyl}pyridin-2(1H)-one] was 33 nM.

Take `O=c1cc(OCc2ccc(Cl)cn2)ccn1-c1ccc(OC[C@H](O)C2CC2)cc1` [Example 22]: the IC50 amounted to 101 nM. Turning to `COc1cc(-n2ccc(OCc3ccc(Cl)cn3)cc2=O)ccc1OC[C@@H](O)C1CC1` [Example 24, 4-[(5-chloropyridin-2-yl)methoxy]-1-{4-[(2S)-2-cyclopropyl-2-hydroxyethoxy]-3-methoxyphenyl}pyridin-2(1H)-one], the IC50 is 36 nM.

In the case of `O=c1cc(OCc2ccc(Cl)cn2)ccn1-c1ccc(OC[C@@H](O)C2CC2)cc1` [Example 26, 4-[(5-chloropyridin-2-yl)methoxy]-1-{4-[(2S)-2-cyclopropyl-2-hydroxyethoxy]phenyl}pyridin-2(1H)-one], the IC50 was 91 nM.
